Among the data in ChEMBL document CHEMBL6177973, “A Novel Compound 3a-M1, from Metabolites of Sinomenine Derivative 3a, Exerts Potent Anti-Aplastic Anemia Activity via IP3R/ORAI-Mediated CTL Ferroptosis” (J Med Chem, 2025) are IC50 values, retold here.

Holding throughout (assay type): functional, cell-based
One assay relates to IEC-6. Put plainly: Cytotoxicity against rat IEC-6 cells assessed as inhibition of cell viability incubated for 72 hrs by CCK8 assay. Particulars: IEC-6, 72 h.
The subject of another assay is RAW264.7. Put plainly: Cytotoxicity against mouse RAW264.7 cells assessed as inhibition of cell viability incubated for 72 hrs by CCK8 assay. The following applies: RAW264.7, 72 h. In general terms: Tetrazolium assays rely on reduction of a dye to a coloured formazan, in cell work by metabolically active cells.
For the next assay, the system named is CTLL-2. Put plainly: Cytotoxicity against mouse CTLL-2 cells assessed as inhibition of cell viability incubated for 72 hrs by CCK8 assay. Particulars: CTLL-2, 72 h.
The next assay concerns THP-1. Put plainly: Cytotoxicity against human THP-1 cells assessed as inhibition of cell viability incubated for 72 hrs by CCK8 assay. Particulars: THP-1, 72 h.
The next assay has as its system HL-60. Put plainly: Cytotoxicity against human HL-60 cells assessed as inhibition of cell viability incubated for 72 hrs by CCK8 assay. The following applies: HL-60, 72 h.
The next assay deals with HepG2. Kind of assay: Cytotoxicity against human HepG2 cells assessed as inhibition of cell viability incubated for 72 hrs by CCK8 assay. The following applies: HepG2, 72 h.
Another assay concerns NRK-52E. Put plainly: Cytotoxicity against rat NRK-52E cells assessed as inhibition of cell viability incubated for 72 hrs by CCK8 assay.

What is called IC50 is the midpoint of a concentration-inhibition curve. Turning to `C/C=C/C[C@@H](C)[C@@H](O)[C@H]1C(=O)N[C@@H](CC)C(=O)N(C)CC(=O)N(C)[C@@H](CC(C)C)C(=O)N[C@@H](C(C)C)C(=O)N(C)[C@@H](CC(C)C)C(=O)N[C@@H](C)C(=O)N[C@H](C)C(=O)N(C)[C@@H](CC(C)C)C(=O)N(C)[C@@H](CC(C)C)C(=O)N(C)[C@@H](C(C)C)C(=O)N1C` [CYCLOSPORINE], the IC50 with IEC-6 came to 9.14 µM; in the assay on RAW264.7, 14.2 µM; in the assay on CTLL-2, 2.72 µM; in the assay on THP-1, 4.36 µM; in the assay with HL-60, 8.14 µM; with HepG2, 11.7 µM. Also, the IC50 in the assay with NRK-52E stood at 35.4 µM.
